# Data taken from PMC6880817, “Palladium-catalyzed synthesis and nucleotide pyrophosphatase inhibition of benzo[4,5]furo[3,2-b]indoles” (Beilstein Journal of Organic Chemistry, 2019).
# Where two headings read alike, the source gives them in different places.
# Assays:
# [1] = target: T1, h-NPP-1 (Homo sapiens, UniProt P22413); assay: Nucleotide pyrophosphatase inhibition assay (colorimetric, pNP-TMP substrate), h-NPP-1; type: biochemical; conditions: for interaction with enzyme h-NPP-1: result in words
# T1 construct: made in house; host or cells: COS-7 cells transiently transfected with a plasmid expressing human NPP-1; lysate/membrane fraction used as the enzyme
# T1 sequence (P22413 1-925): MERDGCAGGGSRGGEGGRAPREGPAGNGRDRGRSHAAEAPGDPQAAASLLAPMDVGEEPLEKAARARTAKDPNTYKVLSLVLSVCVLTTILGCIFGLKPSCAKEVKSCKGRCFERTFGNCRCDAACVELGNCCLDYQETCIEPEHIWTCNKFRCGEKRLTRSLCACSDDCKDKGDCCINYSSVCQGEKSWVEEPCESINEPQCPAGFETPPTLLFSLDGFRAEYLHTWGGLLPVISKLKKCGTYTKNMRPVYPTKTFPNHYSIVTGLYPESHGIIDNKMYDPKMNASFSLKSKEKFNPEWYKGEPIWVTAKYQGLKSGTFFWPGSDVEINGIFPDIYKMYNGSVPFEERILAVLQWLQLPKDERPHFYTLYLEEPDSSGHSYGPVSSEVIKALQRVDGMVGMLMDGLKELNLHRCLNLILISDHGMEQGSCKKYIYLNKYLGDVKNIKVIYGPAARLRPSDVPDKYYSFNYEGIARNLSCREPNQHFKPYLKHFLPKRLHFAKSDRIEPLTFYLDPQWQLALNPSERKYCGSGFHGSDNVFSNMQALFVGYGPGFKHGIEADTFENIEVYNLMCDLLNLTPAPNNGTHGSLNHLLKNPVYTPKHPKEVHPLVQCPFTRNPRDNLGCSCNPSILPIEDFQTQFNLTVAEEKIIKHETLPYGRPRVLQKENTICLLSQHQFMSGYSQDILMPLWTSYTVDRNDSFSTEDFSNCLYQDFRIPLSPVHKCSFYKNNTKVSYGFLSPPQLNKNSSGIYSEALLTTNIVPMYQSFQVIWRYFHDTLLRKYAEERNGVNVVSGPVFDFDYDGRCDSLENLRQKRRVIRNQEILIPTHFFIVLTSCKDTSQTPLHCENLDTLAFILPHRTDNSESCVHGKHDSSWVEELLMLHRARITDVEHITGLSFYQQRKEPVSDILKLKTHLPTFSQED
# Description: (§1) The inhibition potential of all the sulphonate derivatives against NPP1 and NPP3, was determined by considering an already reported colorimetric method with minor modifications. The reaction buffer was comprised of 50 mM Tris-hydrochloric acid, 5 mM magnesium chloride (MgCl2) and 0.1 mM zinc chloride (ZnCl2) with final pH 9.5. For initial screening of compounds, first enzyme and substrate parameters (concentration, temperature, time) were optimized. The reaction assay was performed at 100 µL well volume containing assay buffer, 10 µL of 1 mM test compound prepared in 10% DMSO, enzymes NPP1 (35 ng), NPP3 (94 ng) and assay buffer. The reaction mixture was incubated at 37 °C, 10 minutes for NPP1 and NPP3. Absorbance was taken at wavelength of 405 nm as pre-read by using a microplate reader (BioTek FLx800, Instruments, Inc. USA). After pre-read the artificial substrate p-nitrophenyl 5'-thymidine monophosphate (pNP-TMP), 400 µM for NPP1 and 600 µM in case of NPP3, was added followed by a second incubation at 37 °C, 15 minutes for NPP1 and NPP3. Absorbance was taken as after read. All the experiments were performed in triplicate.
# (§2) Cell transfection with human NPPs. Analogous as previously described, COS-7 cells were transfected with plasmids expressing human NPPs ((NPP-1) or (NPP-3)) in 10 cm plates, by using Lipofectamine. The confluent cells were incubated for 5 h at 37 °C in DMEM/F-12 in the absence of fetal bovine serum and with 6 µg of plasmid DNA and 24 µL of lipofectamine reagent. Subsequently, the same volume of DMEM/F-12 containing 20% FBS was added to stop the transfection and cells were harvested 48–72 h later.
# (§3) Preparation of membrane fractions. Analogous as previously described, the transfected cells were washed three times with Tris–saline buffer at 4 °C and then the cells were collected by scraping in the harvesting buffer (95 mM NaCl, 0.1 mM PMSF, and 45 mM Tris buffer, pH 7.5). Afterwards, the cells were washed twice by centrifugation at 300g for 5 min at 4 °C [4]. These cells were resuspended in the harvesting buffer containing 1 0 µg/mL aprotinin and then sonicated. Cellular and nuclear debris were discarde d by 10 min centrifugation (300 g at 4 °C). Glycerol (final concentration of 7.5%) was added to the resulting supernatant and all the samples were kept at −80 °C until used. Bra dford microplate assay was used for the estimation of protein concentration. Bovine serum albumin was used as a reference standard.
# (§4) Protocol of nucleotide pyrophosphatase (h -NPP-1 & h-NPP-3) activity. Analogous as previously described , the conditions for the assay were optimized with the slight modifications in previously used spectrophotometric method. The reaction was carried out in the assay buffer which contained 5 mM MgCl 2, 0.1 mM ZnCl 2, 25% glycerol and 50 mM tris-hydrochloride (pH: 9.5). Initial screening was performed at a concentration of 0.1 mM of the tested compounds. The total volume of 100 µL contained 70 µL of the assay buffer, 10 µL of tested compound (0.1 mM with final DMSO 1% (v/v)) and 10 µL of h -NPP-1 (27 ng of protein from CO S cell lysate in assay buffer ) or 10 µL of h -NPP-3 (25 ng of protein from COS cell lysate in assay buffer ). The mixture was pre -incubated for 10 minutes at 37 °C and absorbance was measured at 405 nm as pre -read using microplate reader (BioTek FLx800, Instruments, Inc. USA). The reaction was then initiated by the addition of 10 µL of p-Nph-5-TMP substrate at a final concentration of 0.5 mM and the reaction mixture was incubated for 30 more min at 37 °C. The change in the absorbance was measured as after -read. The activity of each compound was compared with the reaction in absence of tested compounds/inhibitors.
# (§5) 3 activity were further evaluated for determination of IC 50 values. For this purpose, their dose response curves were obtained by assaying each inhibitor concentration against both NPPs […]
# (§6) using the above mentioned reaction conditions. […]
# [2] = target: T2, h-NPP-3 (Homo sapiens, UniProt O14638); assay: Nucleotide pyrophosphatase inhibition assay (colorimetric, pNP-TMP substrate), h-NPP-3; type: biochemical; conditions: for selectivity of inhibitory response towards h-NPP-3: h-NPP-3 versus h-NPP-1, result in words
# T2 construct: made in house; host or cells: COS-7 cells transiently transfected with a plasmid expressing human NPP-3; lysate/membrane fraction used as the enzyme
# T2 sequence (O14638 1-875): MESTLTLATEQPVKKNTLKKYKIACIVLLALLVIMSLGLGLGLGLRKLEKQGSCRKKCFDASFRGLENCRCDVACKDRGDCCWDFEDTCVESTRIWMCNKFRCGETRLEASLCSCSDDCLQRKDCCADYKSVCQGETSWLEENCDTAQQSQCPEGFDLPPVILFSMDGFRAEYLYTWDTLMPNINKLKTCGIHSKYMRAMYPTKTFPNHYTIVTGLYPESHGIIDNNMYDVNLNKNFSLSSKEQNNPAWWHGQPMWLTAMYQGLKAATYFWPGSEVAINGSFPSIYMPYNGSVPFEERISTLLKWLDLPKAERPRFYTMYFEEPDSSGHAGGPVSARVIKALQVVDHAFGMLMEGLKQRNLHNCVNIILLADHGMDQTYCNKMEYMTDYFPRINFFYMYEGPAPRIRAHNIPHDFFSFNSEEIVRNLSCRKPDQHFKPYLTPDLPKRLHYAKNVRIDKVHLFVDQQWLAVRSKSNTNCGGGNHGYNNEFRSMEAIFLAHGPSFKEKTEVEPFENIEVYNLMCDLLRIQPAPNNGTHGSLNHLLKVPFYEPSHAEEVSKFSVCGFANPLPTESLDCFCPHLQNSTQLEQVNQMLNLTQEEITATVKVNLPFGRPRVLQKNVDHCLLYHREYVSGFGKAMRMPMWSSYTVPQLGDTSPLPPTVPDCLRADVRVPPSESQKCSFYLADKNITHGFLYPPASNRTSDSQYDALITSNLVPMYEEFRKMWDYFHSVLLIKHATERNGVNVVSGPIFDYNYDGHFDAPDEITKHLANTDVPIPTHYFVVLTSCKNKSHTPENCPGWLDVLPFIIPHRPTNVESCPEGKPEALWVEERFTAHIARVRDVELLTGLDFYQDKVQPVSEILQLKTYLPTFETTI
# Description: as §1, §2, §3, §4, §5, §6
# [3] = human recombinant NPP1, pNP-TMP substrate, pH 9.5, 37 °C, absorbance 405 nm, read-out: h-NPP-1 IC50 (µM) ± SEM
# [4] = human recombinant NPP3, pNP-TMP substrate, pH 9.5, 37 °C, absorbance 405 nm, read-out: h-NPP-3 IC50(µM) ± SEM
# [5] = read-out: h-NPP-3 IC50 ± SEM (unit inferred)
Compound,"IC50 [1, 3] [µM]","IC50 [2, 4] [µM]",melting point [°C],selectivity of inhibitory response towards h-NPP-3 [2],also measured
Cc1ccc(-n2c3ccccc3c3oc4ccccc4c32)cc1 [Compound 5b],2.84 ± 0.06,0.59 ± 0.02,134 to 135,,
COc1ccc(-n2c3ccccc3c3oc4ccccc4c32)cc1 [Compound 5e],> 100,,,selective inhibitory response towards nucleotide pyrophosphatase enzyme h-NPP-3,"IC50 ([2]; read-out: inhibitory value for h-NPP-3, IC50 ± SEM): 0.26 ± 0.01 µM"
c1ccc(Cn2c3ccccc3c3oc4ccccc4c32)cc1 [Compound 5h],2.62 ± 0.03,0.27 ± 0.06,,,
CCCCCCCn1c2ccccc2c2oc3ccccc3c21 [Compound 5i],3.27 ± 0.08,2.55 ± 0.07,,,
c1ccc2c(c1)oc1c3ccccc3n(C3CCCCC3)c21 [Compound 5j],6.14 ± 0.09,2.39 ± 0.05,163 to 164,,
c1ccc(-n2c3ccccc3c3oc4ccccc4c32)cc1 [Compound 5a],> 100,1.38 ± 0.03,137 to 139,selective inhibitory response towards nucleotide pyrophosphatase enzyme h-NPP-3,
FC(F)(F)c1cccc(-n2c3ccccc3c3oc4ccccc4c32)c1 [Compound 5d],3.57 ± 0.03,0.49 ± 0.04,178 to 179,,
COc1ccc(-n2c3ccccc3c3oc4ccccc4c32)cc1OC [Compound 5f],,,175 to 176,,

# Further lines, with some results ahead:
"IC50 [1, 3] [µM]","IC50 [2, 4] [µM]",melting point [°C],Compound,selectivity of inhibitory response towards h-NPP-3 [2],also measured
1.38 ± 0.09,0.18 ± 0.01,,COc1ccc(-n2c3ccccc3c3oc4c5ccccc5n(-c5ccc(OC)cc5)c4c32)cc1 [Compound 6d],,
,0.61 ± 0.09,,Cc1ccc(-n2c3ccccc3c3oc4c5ccccc5n(-c5ccc(C)cc5)c4c32)cc1 [Compound 6a],,"IC50 ([1]; read-out: inhibitory value for h-NPP-1, IC50 ± SEM): 0.11 ± 0.06 µM"
> 100,,,FC(F)(F)c1cccc(-n2c3ccccc3c3oc4c5ccccc5n(-c5cccc(C(F)(F)F)c5)c4c32)c1 [Compound 6c],highly selective towards h-NPP-3,"interaction with enzyme h-NPP-1 [1]: no interaction with enzyme h-NPP-1; IC50 [2, 5]: 0.28 ± 0.04 µM"
0.53 ± 0.09,0.21 ± 0.04,,c1ccc(Cn2c3ccccc3c3oc4c5ccccc5n(Cc5ccccc5)c4c32)cc1 [Compound 6e],,
> 100,,,Fc1ccc(-n2c3ccccc3c3oc4c5ccccc5n(-c5ccc(F)cc5)c4c32)cc1 [Compound 6b],highly selective towards h-NPP-3,"interaction with enzyme h-NPP-1 [1]: no interaction with enzyme h-NPP-1; IC50 [2, 5]: 0.13 ± 0.06 µM"
